In PubChem BioAssay AID248 (DTP/NCI, 2004):
Where “and” joins values, the source holds several entries; their conditions need not be identical. Identical values can stand only once. Inconclusive results and toxic doses are left out. Square brackets hold non-standard residues; d marks the D form. Peptide text beside a SMILES is read from it. * marks the point of attachment. ξ: configuration not given here. ξE = NC(CCC(=O)O)C(=O)O; Cbz = O=C(OCc1ccccc1)*

Tested on: L1210 leukemia ip in BDF1 mice, survival T/C
Assay: NCI In Vivo Anticancer Drug Screen. Data for tumor model L1210 Leukemia (intraperitoneal) in B6D2F1 (BDF1) mice
Conditions: higher = longer survival
Outline: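 Value reflects the ratio of survival in compound-treated mice to survival in vehicle-treated controls, with both groups carrying the same transplanted tumor.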

[1] = endpoint: mean survival time, dose: 100.0 mg/kg/injection, schedule: Q04DX003 (ip), vehicle: saline with Tween-80
[2] = endpoint: mean survival time, dose: 200.0 mg/kg/injection, schedule: Q04DX003 (ip), vehicle: saline with Tween-80
[3] = endpoint: mean survival time, dose: 400.0 mg/kg/injection, schedule: Q04DX003 (ip), vehicle: saline with Tween-80
[4] = endpoint: mean survival time, dose: 400.0 mg/kg/injection, schedule: Q01DX001 (ip), vehicle: saline with Tween-80
[5] = endpoint: mean survival time, dose: 100.0 mg/kg/injection, schedule: Q01DX001 (ip), vehicle: saline with Tween-80
[6] = endpoint: mean survival time, dose: 100.0 mg/kg/injection, schedule: Q01DX009 (ip), vehicle: saline
[7] = endpoint: mean survival time, dose: 200.0 mg/kg/injection, schedule: Q01DX009 (ip), vehicle: saline
[8] = endpoint: mean survival time, dose: 50.0 mg/kg/injection, schedule: Q04DX002 (ip), vehicle: Klucel (hydroxypropylcellulose) (HPC)
[9] = endpoint: mean survival time, dose: 100.0 mg/kg/injection, schedule: Q04DX002 (ip), vehicle: Klucel (hydroxypropylcellulose) (HPC)
[10] = endpoint: mean survival time, dose: 100.0 mg/kg/injection, schedule: Q01DX009 (ip), vehicle: saline with Tween-80
[11] = endpoint: mean survival time, dose: 200.0 mg/kg/injection, schedule: Q01DX009 (ip), vehicle: saline with Tween-80
[12] = endpoint: mean survival time, dose: 400.0 mg/kg/injection, schedule: Q01DX009 (ip), vehicle: saline with Tween-80
[13] = endpoint: mean survival time, dose: 25.0 mg/kg/injection, schedule: Q01DX001 (ip), vehicle: carboxymethylcellulose (CMC)
[14] = endpoint: mean survival time, dose: 50.0 mg/kg/injection, schedule: Q01DX001 (ip), vehicle: carboxymethylcellulose (CMC)
[15] = endpoint: mean survival time, dose: 100.0 mg/kg/injection, schedule: Q01DX001 (ip), vehicle: carboxymethylcellulose (CMC)
[16] = endpoint: mean survival time, dose: 200.0 mg/kg/injection, schedule: Q01DX001 (ip), vehicle: carboxymethylcellulose (CMC)
[17] = endpoint: mean survival time, dose: 400.0 mg/kg/injection, schedule: Q01DX001 (ip), vehicle: carboxymethylcellulose (CMC)
[18] = endpoint: mean survival time, dose: 100.0 mg/kg/injection, schedule: Q01DX001 (ip), vehicle: saline
[19] = endpoint: mean survival time, dose: 200.0 mg/kg/injection, schedule: Q01DX001 (ip), vehicle: saline
[20] = endpoint: mean survival time, dose: 400.0 mg/kg/injection, schedule: Q01DX001 (ip), vehicle: saline

## COC(=O)NNc1ccccc1C(=O)OC
endpoint: mean survival time, dose: 100.0 mg/kg/injection, schedule: Q04DX002 (ip), vehicle: saline with Tween-80
  T/C: 88 % of control
endpoint: mean survival time, dose: 200.0 mg/kg/injection, schedule: Q04DX002 (ip), vehicle: saline with Tween-80
  T/C: 88 % of control
endpoint: mean survival time, dose: 400.0 mg/kg/injection, schedule: Q04DX002 (ip), vehicle: saline with Tween-80
  T/C: 98 % of control

## CC(C)C(=O)Nc1ccc(S(=O)(=O)NCCO)cc1
[1]
  T/C: 97 % of control
[2]
  T/C: 92 % of control
[3]
  T/C: 92 % of control

## O=C1C2C3SC(c4nc5ccccc5cc43)C2C(=O)N1c1ccccc1 (configuration not stated)
[4]
  T/C: 91 % of control

## COc1ccc(CO)cc1
endpoint: mean survival time, dose: 75.0 mg/kg/injection, schedule: Q04DX003 (ip), vehicle: Klucel (hydroxypropylcellulose) (HPC)
  T/C: 95 % of control
endpoint: mean survival time, dose: 150.0 mg/kg/injection, schedule: Q04DX003 (ip), vehicle: Klucel (hydroxypropylcellulose) (HPC)
  T/C: 101 % of control
endpoint: mean survival time, dose: 300.0 mg/kg/injection, schedule: Q04DX003 (ip), vehicle: Klucel (hydroxypropylcellulose) (HPC)
  T/C: 91 % of control

## CCCCCCCCCCNC(C1=C(O)c2ccccc2C(=O)C1=O)c1ccccc1 (configuration not stated)
endpoint: mean survival time, dose: 25.0 mg/kg/injection, schedule: Q01DX001 (ip), vehicle: saline with Tween-80
  T/C: 89 % of control
[5]
  T/C: 89 % of control
[4]
  T/C: 86 % of control

## Nc1ccnc2n[nH]nc12
[5]
  T/C: 111 % of control
[1]
  T/C: 101 % of control
endpoint: mean survival time, dose: 200.0 mg/kg/injection, schedule: Q01DX001 (ip), vehicle: saline with Tween-80
  T/C: 110 % of control
[2]
  T/C: 100 % of control
[4]
  T/C: 104 % of control
[3]
  T/C: 103 % of control

## CN(CO)c1nc(N(C)CO)nc(N(C)CO)n1
endpoint: mean survival time, dose: 6.25 mg/kg/injection, schedule: Q01DX009 (ip), vehicle: saline
  T/C: 109 % of control
endpoint: mean survival time, dose: 12.5 mg/kg/injection, schedule: Q01DX009 (ip), vehicle: saline
  T/C: 113 % of control
endpoint: mean survival time, dose: 25.0 mg/kg/injection, schedule: Q01DX009 (ip), vehicle: saline
  T/C: 120 % of control
[6]
  T/C: 166 % of control
[7]
  T/C: 86 % of control

## NCCCNCCCN
endpoint: mean survival time, dose: 25.0 mg/kg/injection, schedule: Q04DX002 (ip), vehicle: Klucel (hydroxypropylcellulose) (HPC)
  T/C: 103 % of control
[8]
  T/C: 97 % of control
[9]
  T/C: 103 % of control and 117 % of control

## CCNc1nc(Cl)nc(N(CC)CC)n1
[10]
  T/C: 91 % of control
[11]
  T/C: 98 % of control
[12]
  T/C: 89 % of control

## O=NN(CCCl)C(=O)CCCCC(=O)N(CCCl)N=O
[13]
  T/C: 154 % of control
[14]
  T/C: 160 % of control
endpoint: mean survival time, dose: 100.0 mg/kg/injection, schedule: Q01DX001 (ip), vehicle: Klucel (hydroxypropylcellulose) (HPC)
  T/C: 75 % of control
[15]
  T/C: 165 % of control
endpoint: mean survival time, dose: 200.0 mg/kg/injection, schedule: Q01DX001 (ip), vehicle: Klucel (hydroxypropylcellulose) (HPC)
  T/C: 67 % of control
[16]
  T/C: 122 % of control

## C(=NCC(CCN1CCCC1)(CCN1CCCC1)c1cccc2ccccc12)C(CCN1CCCC1)(CCN1CCCC1)c1cccc2ccccc12
endpoint: mean survival time, dose: 5.0 mg/kg/injection, schedule: Q01DX009 (ip), vehicle: saline with Tween-80
  T/C: 106 % of control
endpoint: mean survival time, dose: 6.25 mg/kg/injection, schedule: Q04DX002 (ip), vehicle: saline
  T/C: 92 % of control
endpoint: mean survival time, dose: 10.0 mg/kg/injection, schedule: Q01DX009 (ip), vehicle: saline with Tween-80
  T/C: 106 % of control
endpoint: mean survival time, dose: 12.5 mg/kg/injection, schedule: Q04DX002 (ip), vehicle: saline
  T/C: 101 % of control

## CC(=O)c1cccc(NC2C(N)C(NC(=O)N(C)C)(C(C)O)C(C)(O)C2(O)COC(=O)c2c(C)cccc2O)c1 (configuration not stated)
endpoint: mean survival time, dose: 0.25 mg/kg/injection, schedule: Q01DX Z (ip), vehicle: saline
  T/C: 98 % of control
endpoint: mean survival time, dose: 0.5 mg/kg/injection, schedule: Q01DX Z (ip), vehicle: saline
  T/C: 98 % of control
endpoint: mean survival time, dose: 0.7 mg/kg/injection, schedule: Q01DX015 (ip), vehicle: carboxymethylcellulose (CMC)
  T/C: 111 % of control
endpoint: mean survival time, dose: 1.0 mg/kg/injection, schedule: Q01DX Z (ip), vehicle: saline
  T/C: 113 % of control
endpoint: mean survival time, dose: 1.5 mg/kg/injection, schedule: Q01DX015 (ip), vehicle: carboxymethylcellulose (CMC)
  T/C: 122 % of control
endpoint: mean survival time, dose: 2.0 mg/kg/injection, schedule: Q01DX Z (ip), vehicle: saline
  T/C: 117 % of control
endpoint: mean survival time, dose: 3.0 mg/kg/injection, schedule: Q01DX001 (ip), vehicle: carboxymethylcellulose (CMC)
  T/C: 104 % of control
endpoint: mean survival time, dose: 3.0 mg/kg/injection, schedule: Q01DX015 (ip), vehicle: carboxymethylcellulose (CMC)
  T/C: 90 % of control
endpoint: mean survival time, dose: 6.0 mg/kg/injection, schedule: Q01DX001 (ip), vehicle: carboxymethylcellulose (CMC)
  T/C: 107 % of control
endpoint: mean survival time, dose: 12.0 mg/kg/injection, schedule: Q01DX001 (ip), vehicle: carboxymethylcellulose (CMC)
  T/C: 107 % of control
[13]
  T/C: 112 % of control
[14]
  T/C: 112 % of control
[15]
  T/C: 114 % of control
endpoint: median survival time, dose: 2.0 mg/kg/injection, schedule: Q04DX003 (ip), vehicle: acid diluted with saline
  T/C: 103 % of control
endpoint: median survival time, dose: 4.0 mg/kg/injection, schedule: Q04DX003 (ip), vehicle: acid diluted with saline
  T/C: 103 % of control
endpoint: median survival time, dose: 8.0 mg/kg/injection, schedule: Q04DX003 (ip), vehicle: acid diluted with saline
  T/C: 103 % of control
endpoint: median survival time, dose: 16.0 mg/kg/injection, schedule: Q04DX003 (ip), vehicle: acid diluted with saline
  T/C: 112 % of control

## O=C(O)CCC(NC(=O)CNC(=O)OCc1ccccc1)C(=O)O (stereo not drawn) (Cbz-Gly-[ξE]-OH)
endpoint: mean survival time, dose: 50.0 mg/kg/injection, schedule: Q01DX009 (ip), vehicle: Klucel (hydroxypropylcellulose) (HPC)
  T/C: 95 % of control
endpoint: mean survival time, dose: 50.0 mg/kg/injection, schedule: Q04DX003 (ip), vehicle: Klucel (hydroxypropylcellulose) (HPC)
  T/C: 92 % of control
endpoint: mean survival time, dose: 100.0 mg/kg/injection, schedule: Q01DX009 (ip), vehicle: Klucel (hydroxypropylcellulose) (HPC)
  T/C: 97 % of control
endpoint: mean survival time, dose: 100.0 mg/kg/injection, schedule: Q04DX003 (ip), vehicle: Klucel (hydroxypropylcellulose) (HPC)
  T/C: 96 % of control
endpoint: mean survival time, dose: 200.0 mg/kg/injection, schedule: Q01DX009 (ip), vehicle: Klucel (hydroxypropylcellulose) (HPC)
  T/C: 93 % of control
endpoint: mean survival time, dose: 200.0 mg/kg/injection, schedule: Q04DX003 (ip), vehicle: Klucel (hydroxypropylcellulose) (HPC)
  T/C: 93 % of control

## Cc1sc(Cc2ccccc2)nc1-c1ccc(N=Cc2ccc(N(CCCl)CCCl)cc2)cc1
[15]
  T/C: 104 % of control
[16]
  T/C: 98 % of control
[17]
  T/C: 95 % of control

## COc1cc(OC)c(OC)cc1/C=C/c1ccc2ccccc2n1
[10]
  T/C: 91 % of control
[11]
  T/C: 100 % of control
[12]
  T/C: 98 % of control

## CC(=O)NCSCC(N)C(=O)O (configuration not stated)
[6]
  T/C: 100 % of control
endpoint: mean survival time, dose: 100.0 mg/kg/injection, schedule: Q04DX003 (ip), vehicle: saline
  T/C: 108 % of control
[7]
  T/C: 95 % of control
endpoint: mean survival time, dose: 200.0 mg/kg/injection, schedule: Q04DX003 (ip), vehicle: saline
  T/C: 92 % of control
endpoint: mean survival time, dose: 400.0 mg/kg/injection, schedule: Q01DX009 (ip), vehicle: saline
  T/C: 92 % of control
endpoint: mean survival time, dose: 400.0 mg/kg/injection, schedule: Q04DX003 (ip), vehicle: saline
  T/C: 94 % of control

## CC(=O)C(C(=O)NCc1ccccc1)C(c1ccc2c(c1)OCO2)C(C(C)=O)C(=O)NCc1ccccc1 (configuration not stated)
[18]
  T/C: 98 % of control
[19]
  T/C: 96 % of control
[20]
  T/C: 97 % of control

## CC(=O)C(CCC#N)(CCC#N)c1ccccc1
[8]
  T/C: 121 % of control
[9]
  T/C: 101 % of control

## COc1ccc(OC)c2c1C(=O)c1ccccc1C2=O
endpoint: mean survival time, dose: 25.0 mg/kg/injection, schedule: Q01DX009 (ip), vehicle: saline with Tween-80
  T/C: 107 % of control
[14]
  T/C: 102 % of control
endpoint: mean survival time, dose: 50.0 mg/kg/injection, schedule: Q01DX009 (ip), vehicle: saline with Tween-80
  T/C: 104 % of control
[15]
  T/C: 108 % of control
[10]
  T/C: 104 % of control
[16]
  T/C: 102 % of control
[11]
  T/C: 107 % of control
[17]
  T/C: 113 % of control
[12]
  T/C: 111 % of control

## O=C(Nc1cccc2ncccc12)c1ccc(C(=O)Nc2cccc3ncccc23)cc1
[18]
  T/C: 101 % of control
[19]
  T/C: 93 % of control
[20]
  T/C: 91 % of control
